Laboratory results taken from PubChem BioAssay (NCI).
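Tested at 5 concentrations; 48 h exposure; 96-well plates; endpoints linearly interpolated, else capped at highest concentration. TGI denotes the concentration required for complete inhibition of growth.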

How the values were obtained:
Assay in all cases: growth of human tumour cells (NCI), 48 h
HCT-116 colon = tested on: HCT-116 colon
SNB-75 CNS = tested on: SNB-75 CNS
RXF 393 renal = tested on: RXF 393 renal
HOP-92 NSCLC = tested on: HOP-92 NSCLC
PC-3 prostate = tested on: PC-3 prostate
RPMI-8226 leukemia = tested on: RPMI-8226 leukemia
786-0 renal = tested on: 786-0 renal
SF-539 CNS = tested on: SF-539 CNS
MOLT-4 leukemia = tested on: MOLT-4 leukemia
ACHN renal = tested on: ACHN renal
IGROV1 ovarian = tested on: IGROV1 ovarian
DU-145 prostate = tested on: DU-145 prostate
OVCAR-8 ovarian = tested on: OVCAR-8 ovarian
OVCAR-5 ovarian = tested on: OVCAR-5 ovarian
SK-MEL-28 melanoma = tested on: SK-MEL-28 melanoma
HT29 colon = tested on: HT29 colon
MDA-N = tested on: MDA-N
HS 578T breast = tested on: HS 578T breast
UACC-62 melanoma = tested on: UACC-62 melanoma
NCI-H460 lung = tested on: NCI-H460 lung
M14 melanoma = tested on: M14 melanoma
NCI-H522 lung = tested on: NCI-H522 lung
U251 CNS = tested on: U251 CNS
HCC-2998 colon = tested on: HCC-2998 colon
HL-60(TB) leukemia = tested on: HL-60(TB) leukemia
EKVX NSCLC = tested on: EKVX NSCLC
NCI/ADR-RES ovarian = tested on: NCI/ADR-RES ovarian
MCF7 breast = tested on: MCF7 breast
KM12 colon = tested on: KM12 colon
T-47D breast = tested on: T-47D breast
CCRF-CEM leukemia = tested on: CCRF-CEM leukemia
SF-295 CNS = tested on: SF-295 CNS
K-562 leukemia = tested on: K-562 leukemia
SF-268 CNS = tested on: SF-268 CNS
CAKI-1 renal = tested on: CAKI-1 renal
SNB-19 CNS = tested on: SNB-19 CNS
UO-31 renal = tested on: UO-31 renal
BT-549 breast = tested on: BT-549 breast
TK-10 renal = tested on: TK-10 renal
MALME-3M melanoma = tested on: MALME-3M melanoma
OVCAR-4 ovarian = tested on: OVCAR-4 ovarian
SK-MEL-2 melanoma = tested on: SK-MEL-2 melanoma
HOP-62 NSCLC = tested on: HOP-62 NSCLC
MDA-MB-435 = tested on: MDA-MB-435
SK-OV-3 ovarian = tested on: SK-OV-3 ovarian
SN12C renal = tested on: SN12C renal
SR leukemia = tested on: SR leukemia
SK-MEL-5 melanoma = tested on: SK-MEL-5 melanoma
MDA-MB-231 breast = tested on: MDA-MB-231 breast
COLO 205 colon = tested on: COLO 205 colon
LOX IMVI melanoma = tested on: LOX IMVI melanoma
UACC-257 melanoma = tested on: UACC-257 melanoma
SW-620 colon = tested on: SW-620 colon
NCI-H226 lung = tested on: NCI-H226 lung
HCT-15 colon = tested on: HCT-15 colon
A549 NSCLC = tested on: A549 NSCLC
OVCAR-3 ovarian = tested on: OVCAR-3 ovarian
A498 renal = tested on: A498 renal
NCI-H23 lung = tested on: NCI-H23 lung

Measured: TGI

Cc1nc(-c2cc3c(ccc4ccccc43)oc2=O)cs1
75.2 µM: SNB-75 CNS
89.5 µM: HOP-92 NSCLC
57.8 µM: BT-549 breast
99.3 µM: HS 578T breast
not listed: OVCAR-3 ovarian | A498 renal | NCI-H23 lung
> 100 µM: all other assays above

C=C1[C@H](OC(C)=O)[C@H]2[C@@H](OC(C)=O)[C@@H](C)C[C@]2(C)C(=O)[C@H](C)/C=C/C(C)(C)C(=O)[C@H](OCC(C)C)[C@H]1OC(C)=O
not listed: RPMI-8226 leukemia | SK-MEL-28 melanoma | HT29 colon | K-562 leukemia | MALME-3M melanoma | A549 NSCLC
> 25 µM: all other assays above
